{"source": "patent US20260083722A1", "about": "“BIFUNCTIONAL DEGRADERS COMPRISING ELECTROPHILIC PROTACS THAT ENGAGE DCAF1 AND PHARMACEUTICAL COMPOSITIONS COMPRISING THE SAME” (THE SCRIPPS RESEARCH INSTITUTE, priority 2022, published 2026)", "key": {"HA-FKBP12": {"biological_target": "T1, HA-FKBP12 (Homo sapiens, UniProt P62942)", "T1 construct": "expressed in transfected cells; host or cells: HEK293T", "experiment": "HA-FKBP12 abundance by Western blotting in transfected HEK293T cells", "format": "cell-based", "conditions": "for quantity of HA-FKBP12 and FLAG-DCAF1 in inhibitor-treated cells: HEK293T co-expressing HA-FKBP12 and FLAG-DCAF1", "description": "(A) Left, western blots showing concentration-dependent effects of YT47R (upper) and YT41R (lower) on FKBP12 abundance in HEK293T cells expressing HA-FBKP12 with or without co-expression of FLAG-DCAF1. Right, quantification of HA-FKBP12 abundance in the indicated experimental groups. (B) Left, western blots showing effects of YT47R versus YT47S (upper) and YT41R versus YT41S (lower) on FKBP12 abundance in HEK293T cells co-expressing HA-FBKP12 and FLAG-DCAF1. Right, quantification of HA-FKBP12 abundance in the indicated experimental groups. (C) Western blots showing effects of YT47R (left blots) and YT41R (right blots) on FKBP12 abundance in HEK293T cells co-expressing HA-FBKP12 and either FLAG-DCAF1-WT or FLAG-DCAF1-C1113A mutant. Quantification of HA-FKBP12 abundance in the indicated experimental groups is shown in the adjacent bar graphs. For (A-C), FKBP12 abundance was determined at 24 h post-treatment with compounds, and data are mean values±SEM for three independent experiments. Statistical significance was calculated with unpaired two-tailed Student's t-tests comparing YT41R/YT47R- and DMSO-treated cells. ***P<0.001, ****P<0.0001.\n(A) Left, western blots showing effects of proteasome (MG132) and Neddylation (MLN4924) inhibitors (1 h pre-treatment) on YT47R- and YT41R-dependent degradation of FKBP12 in HEK293T cells co-expressing HA-FBKP12 and FLAG-DCAF1. FKBP12 abundance was determined at 24 h post-treatment with YT47R or YT41R. Right, quantification of HA-FKBP12 abundance in the indicated experimental groups. (B) Left, western blots showing effects of the FKBP12 ligand SLF (20 μM) or DCAF1 ligand MY-11B (1 h pre-treatment with 20 μM SLF or 5 μM MY-11B) on YT47R- and YT41R-dependent degradation of FKBP12 in HEK293T cells co-expressing HA-FBKP12 and FLAG-DCAF1. FKBP12 abundance was determined at 24 h post-treatment with YT47R or YT41R. Right, quantification of HA-FKBP12 abundance in the indicated experimental groups. (C) Left, western blots showing effects of MY-11A or MY-11B (5 μM, 1 h pre-treatment) on YT47R- and YT41R-dependent degradation of FKBP12 in HEK293T cells co-expressing HA-FBKP12 and FLAG-DCAF1. FKBP12 abundance was determined at 24 h post-treatment with YT47R or YT41R. Right, quantification of HA-FKBP12 abundance in the indicated experimental groups. For (A-C), data are mean values±SEM for three-five independent experiments. Statistical significance was calculated with unpaired two-tailed Student's t-tests comparing YT41R/YT47R- and DMSO-treated cells. ****P<0.0001.\nFigure S3. Concentration-dependent degradation of FKBP12 by DCAF1-directed electrophilic PROTACs. Top, western blots showing concentration-dependent effects of YT47R and YT41R on FKBP12 abundance in HEK293T cells co-expressing HA-FBKP12 and FLAG-DCAF1. Data are mean values±SEM for four independent experiments. Statistical significance was calculated with unpaired two-tailed Student's t-tests comparing YT41R/YT47R- and DMSO-treated cells. *P<0.1, **P<0.01, ***P<0.001, ****P<0.0001.\nFigure S4. Time-dependent degradation of FKBP12 by DCAF1-directed electrophilic PROTACs. Top, western blots showing time-dependent effects of YT47R and YT41R (2 μM each) on FKBP12 abundance in HEK293T cells co-expressing HA-FBKP12 and FLAG-DCAF1. Data are mean values±SEM for four independent experiments. Statistical significance was calculated with unpaired two-tailed Student's t-tests comparing YT41R/YT47R- and DMSO-treated cells. ****P<0.0001.\nWe next treated HEK293T cells co-transfected with FLAG epitope-tagged full length DCAF1 (a.a.'s 1-1507) and HA (hemagglutinin) epitope-tagged FKBP12 with a concentration range of YT41R or YT47R and, after 24 h, measured HA-FKBP12 abundance by Western blotting."}, "DCAF1_C1113": {"biological_target": "T2, DCAF1_C1113 (Homo sapiens, UniProt Q9Y4B6)", "T2 construct": "endogenous in cells; host or cells: primary human T cells", "experiment": "cysteine-directed MS-ABPP (IA-DTB probe) in primary human T cells", "format": "cell-based", "conditions": "3 h; for reactivity with DCAF1_C1113: 20 μM compound", "method": "(A) Structures of a set of stereochemically defined azetidine acrylamides MY-1A (1), MY-1B (2), MY-3A (3), and MY-3B (4). (B) Heat map showing cysteines that were substantially engaged by azetidine acrylamides (>75% by at least one compound) in human T cells (20 μM compound, 3 h) as determined by MS-ABPP using an iodoacetamide desthiobiotin (IA-DTB) probe following previously described methods^21. Red arrow marks DCAF1_C1113. (C) MS-ABPP quantification of IA-DTB labeling of DCAF1_C1113 from T cells treated with the indicated azetidine acrylamides (20 μM, 3 h) relative to control T cells treated with DMSO. (D) MS-ABPP quantification of IA-DTB labeling of the indicated cysteines in DCAF1 from T cells treated with MY-1B (20 μM, 3 h) relative to control T cells treated with DMSO. For (B-D), data represent average values (for C and D, average values±SEM) from three independent experiments each performed with two technical replicates, where cysteines were required to have been quantified in at least two experiments for interpretation.\nGuided by the principles of diversity-oriented synthesis^22, specifically the design of compounds with densely functionalized and entropically constrained sp^3-rich cores bearing one or more stereocenters, we generated a set of stereoisomeric azetidine acrylamides (FIG. 1A) and screened these compounds by cysteine-directed MS-ABPP^23-26 in primary human T cells. Across more than 10000 quantified cysteines, these experiments uncovered several azetidine acrylamide-cysteine interactions (FIG. 1B and Dataset S1), including the stereo-(FIG. 1B, C) and site-(FIG. 1D) selective engagement of C1113 on the E3 ligase substrate adaptor DCAF1. […] Other quantified cysteines in DCAF1 were unaffected by MY-1B (FIG. 1D)."}, "[1]": {"biological_target": "T3, recombinant DCAF1-WT (a.a.'s 1046-1396) (Homo sapiens, UniProt Q9Y4B6)", "T3 construct": "form of DCAF1 containing the WD40 domain (amino acids (a.a.'s) 1046-1396); made in house", "T3 sequence (Q9Y4B6 1046-1396)": "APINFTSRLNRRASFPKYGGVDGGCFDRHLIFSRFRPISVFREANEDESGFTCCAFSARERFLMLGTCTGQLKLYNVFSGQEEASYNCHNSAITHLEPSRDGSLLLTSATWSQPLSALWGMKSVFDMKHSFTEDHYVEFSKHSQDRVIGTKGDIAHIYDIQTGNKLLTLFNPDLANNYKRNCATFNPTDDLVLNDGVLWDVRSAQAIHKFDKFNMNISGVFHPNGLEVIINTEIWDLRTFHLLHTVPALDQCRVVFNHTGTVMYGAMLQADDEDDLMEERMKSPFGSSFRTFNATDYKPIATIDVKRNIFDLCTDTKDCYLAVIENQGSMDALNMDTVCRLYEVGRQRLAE", "T3 sequence (Q16531 whole entry partner, the tested form may be a part)": "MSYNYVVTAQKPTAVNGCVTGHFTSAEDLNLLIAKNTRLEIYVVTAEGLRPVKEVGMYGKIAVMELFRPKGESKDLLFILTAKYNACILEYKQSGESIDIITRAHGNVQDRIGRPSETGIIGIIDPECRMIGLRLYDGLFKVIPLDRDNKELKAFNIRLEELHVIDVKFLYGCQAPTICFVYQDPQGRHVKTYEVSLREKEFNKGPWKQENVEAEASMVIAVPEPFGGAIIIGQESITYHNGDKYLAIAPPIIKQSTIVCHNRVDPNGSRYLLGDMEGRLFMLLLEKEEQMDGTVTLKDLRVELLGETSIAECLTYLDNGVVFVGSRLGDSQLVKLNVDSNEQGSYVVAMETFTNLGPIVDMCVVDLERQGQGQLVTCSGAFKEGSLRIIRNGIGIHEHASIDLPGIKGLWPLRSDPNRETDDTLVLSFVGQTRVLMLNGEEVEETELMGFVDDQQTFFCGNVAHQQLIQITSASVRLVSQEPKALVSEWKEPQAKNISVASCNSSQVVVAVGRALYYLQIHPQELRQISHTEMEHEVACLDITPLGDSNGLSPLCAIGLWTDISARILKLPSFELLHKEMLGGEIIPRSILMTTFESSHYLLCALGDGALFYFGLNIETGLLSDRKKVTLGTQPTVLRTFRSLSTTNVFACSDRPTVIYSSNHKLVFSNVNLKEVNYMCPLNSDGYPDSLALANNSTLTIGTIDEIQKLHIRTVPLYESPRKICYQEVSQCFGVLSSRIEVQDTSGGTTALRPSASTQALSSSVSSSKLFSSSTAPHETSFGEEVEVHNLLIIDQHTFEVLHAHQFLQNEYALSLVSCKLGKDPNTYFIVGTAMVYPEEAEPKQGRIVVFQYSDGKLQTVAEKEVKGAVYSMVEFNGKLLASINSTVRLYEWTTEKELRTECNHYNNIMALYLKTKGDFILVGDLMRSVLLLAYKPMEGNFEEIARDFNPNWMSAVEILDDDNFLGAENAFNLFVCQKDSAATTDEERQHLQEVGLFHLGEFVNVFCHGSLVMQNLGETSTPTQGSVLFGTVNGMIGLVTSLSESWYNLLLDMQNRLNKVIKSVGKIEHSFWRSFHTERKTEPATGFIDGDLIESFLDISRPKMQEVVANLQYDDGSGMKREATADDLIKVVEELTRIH", "experiment": "gel-ABPP with recombinant purified DCAF1-WT doped into HEK293T cell proteome", "format": "binding", "conditions": "for block of MY-11B labeling of recombinant DCAF1 by pre-treatment: 6.25-100 μM, MY-11B 25 μM, 1 h", "description": "FIG. 2 that azetidine acrylamides stereo- and site-selectively engage recombinant DCAF1_C1113. (A) Domain map of DCAF1 with the region used for recombinant protein studies marked in a bracket (a.a.'s 1046-1396) and C1113 highlighted in red. (B) Crystal structure of a DCAF1-Vpx complex (pdb: 5AJA). DCAF1 (a.a.'s 1046-1396) is shown in cyan, Vpx is shown in yellow, and C1113, which is located at the DCAF1-Vpx interface is shown in red. (C) Structures of alkyne-modified azetidine acrylamides MY-11A (5) and MY-11B (6). (D) Gel-ABPP showing the concentration-dependent reactivity of MY-11A and MY-11B (1 h) reactivity with recombinant, purified DCAF1-WT or the DCAF1-C1113A mutant (0.06 μg/μL of DCAF1 protein per sample) doped into HEK293T cell proteome (1 μg/μL). MY-11A/B labeling of proteins was visualized by CuAAC conjugation to an azide-rhodamine tag followed by SDS-PAGE and in-gel fluorescence scanning. Results are from a single experiment representative of two independent experiments. (E) Gel-ABPP showing the concentration-dependent effects of MY-1A and MY-1B on MY-11B reactivity with DCAF1-WT. Samples were treated with MY-1A/B for 2 h, followed by MY-11B (25 μM, 1 h) and analyzed as described in (D). Left, quantification of data presented as mean values±SEM from two independent experiments. Right, representative gel-ABPP results. (D, E) Lower images are Coomassie blue-stained gels corresponding to ABPP gels shown in upper images.\n(A) Structures of candidate electrophilic PROTACs YT41R (7), YT41S (8), YT47R (9), and YT47S (10). (B) Gel-ABPP showing the concentration-dependent effects of YT41R and YT47R on MY-11B reactivity with DCAF1-WT protein (0.06 μg/μL of DCAF1 protein per sample) doped into HEK293T cell proteome (1 μg/μL). Also shown are the effects of YT41S and YT47S tested at a single concentration (100 μM). Samples were treated with heterobifunctional compounds for 2 h, followed by MY-11B (25 μM, 1 h) and analyzed as described in FIG. 2D. Left, representative gel-ABPP results. Lower image is Coomassie blue-stained gel corresponding to ABPP gel shown in upper image. Right, quantification of data presented as mean values±SEM from two independent experiments.\nDCAF1 is a multi-domain substrate receptor for CRL4 ligases (FIG. 2A) that has diverse physiological and disease functions, including being co-opted by the HIV-2 virus to promote degradation of the antiviral host protein SAMHD1^27-28. […] We verified the stereo- and site-selective engagement of DCAF1_C1113 by azetidine acrylamides using alkynylated analogues of MY-1A and MY-1B (MY-11A (5) and MY-11B (6), respectively; FIG. 2C). For these experiments, we doped into HEK293T cell lysates a recombinantly expressed and purified form of DCAF1 containing the WD40 domain (amino acids (a.a.'s) 1046-1396), in complex with the CRL4 adaptor protein DDB1^31, and exposed these samples to varying concentrations of MY-11A or MY-11B. After 1 h, we assessed MY-11A and MY-11B engagement of DCAF1 by copper-catalyzed azide-alkyne cycloaddition (CuAAC)^32 with an azide-rhodamine reporter tag followed by SDS-PAGE and in-gel fluorescence scanning^33. […] We used gel-ABPP to quantify an in vitro target engagement value (TE50) of approximately 25 μM (95% C.I.=13-38 μM) for MY-1B labeling of DCAF1 (FIG. 2E, left)."}}, "note": "Where a SMILES comes first, the peptide text is derived from it. The star is where a group is joined. Cbz = O=C(OCc1ccccc1)*"}
{"smiles": "CC(C)C[C@@H](C=O)NC(=O)[C@H](CC(C)C)NC(=O)[C@H](CC(C)C)NC(=O)OCc1ccccc1", "note": "[MG132, reference compound] (Cbz-Leu-Leu-Leu-aldehyde)", "values": [{"measurement": "effect on YT41R/YT47R-mediated degradation of HA-FKBP12", "setting": "HA-FKBP12; 5 μM, 1 h pre-treatment followed by 24 h co-treatment with YT41R/YT47R", "result": "blocked"}, {"measurement": "quantity of HA-FKBP12 and FLAG-DCAF1 in inhibitor-treated cells", "setting": "HA-FKBP12", "result": "increased quantities"}]}
{"smiles": "NS(=O)(=O)OC[C@@H]1C[C@@H](n2ccc3c(N[C@H]4CCc5ccccc54)ncnc32)C[C@@H]1O", "note": "[MLN4924, reference compound]", "values": [{"measurement": "quantity of HA-FKBP12 and FLAG-DCAF1 in inhibitor-treated cells", "setting": "HA-FKBP12", "result": "without causing alterations"}, {"measurement": "effect on YT41R/YT47R-mediated degradation of HA-FKBP12", "setting": "HA-FKBP12; NAE inhibitor, 1 h pre-treatment", "result": "impaired"}]}
{"smiles": "C=CC(=O)N1C[C@@H](c2ccc(Br)cc2)[C@H]1C(=O)Nc1cccc2cccnc12", "note": "[MY-1A, (2S,3R)-1-acryloyl-3-(4-bromophenyl)-N-(84uinoline-8-yl) azetidine-2-carboxamide]", "values": [{"measurement": "reactivity with DCAF1_C1113", "setting": "DCAF1_C1113", "result": "inactive"}, {"measurement": "block of MY-11B labeling of recombinant DCAF1 by pre-treatment", "setting": "[1]; 2 h pre-treatment", "result": "not"}]}
{"smiles": "C=CC(=O)N1C[C@H](c2ccc(Br)cc2)[C@@H]1C(=O)Nc1cccc2cccnc12", "note": "[MY-1B, (2R,3S)-1-acryloyl-3-(4-bromophenyl)-N-(84uinoline-8-yl) azetidine-2-carboxamide]", "values": [{"measurement": "reactivity with DCAF1_C1113", "setting": "DCAF1_C1113", "result": "strongest reactivity"}, {"measurement": "effect on other quantified cysteines in DCAF1", "setting": "DCAF1_C1113; 20 μM", "result": "unaffected"}, {"measurement": "block of MY-11B labeling of recombinant DCAF1 by pre-treatment", "setting": "[1]; 2 h pre-treatment", "result": "blocked"}, {"measurement": "IC50", "setting": "[1]; gel-ABPP, 2 h pre-treatment, 95% C.I.=13-38 μM, read-out: in vitro target engagement value (TE50) for labeling of DCAF1", "result": "~25", "unit": "µM"}]}
{"smiles": "C=CC(=O)N1C[C@@H](c2ccc(Br)cc2)[C@@H]1C(=O)Nc1cccc2cccnc12", "note": "[MY-3B, (2S,3S)-1-acryloyl-3-(4-bromophenyl)-N-(87uinoline-8-yl) azetidine-2-carboxamide]", "values": [{"measurement": "reactivity with DCAF1_C1113", "setting": "DCAF1_C1113", "result": "weaker enantioselective interaction"}]}
{"smiles": "CCC(C)(C)C(=O)C(=O)N1CCCC[C@H]1C(=O)O[C@H](CCc1ccc(OC)c(OC)c1)c1cccc(N)c1", "note": "[SLF, reference compound]", "values": [{"measurement": "effect on YT41R and YT47R-mediated degradation of HA-FKBP12", "setting": "HA-FKBP12; 20 μM, 1 h pre-treatment", "result": "blocked"}]}
{"smiles": "C=CC(=O)C1C[C@@H](c2ccc(C(=O)NCCOCCOCCNC(=O)COc3cccc([C@@H](CCc4ccc(OC)c(OC)c4)OC(=O)[C@@H]4CCCCN4C(=O)C(=O)C(C)(C)CC)c3)cc2)[C@H]1C(=O)Nc1cccc2cccnc12", "note": "(stereo partly shown) [YT41S]", "values": [{"measurement": "inhibition of MY-11B probe reactivity with recombinant DCAF1", "setting": "[1]; 2 h, then MY-11B 25 μM 1 h, YT41S and YT47S at single concentration 100 μM", "result": "did not impair"}]}
